Patent US20260137700A1, “PHARMACEUTICAL COMBINATION OF PRMT5 INHIBITOR AND DNA DAMAGE-INDUCING SUBSTANCE” (SK Biopharmaceuticals Co., Ltd., priority 2022, published 2026)

Tests used:
[1] = tested on: cancer cell lines of Table 2 (A549, A549/CR, A549/PR, CAPAN-1, NCI-H1048, MDA-MB-231, Mia PaCa-2, SNU-324, OVCAR3, PA-1, PANC-1, U-87 MG); test: Cell viability assay (WST) with combination synergy analysis (Bliss score); type: cell-based, human; settings: combination with various DNA damage inducers, FIGS. 1 to 25; culture ended on days 7 to 9
Protocol: Most cell lines were obtained from the American Type Culture Collection (ATCC) or the Korean Cell Line Bank (KCLB). Combination experiments in cisplatin-resistant and paclitaxel-resistant cell lines were performed at the Asan Preclinical Evaluation center for cancer therapeutiX of Asan Medical Center, Seoul. All cell lines were maintained in appropriate growth medium for the cell line in 100-pi dishes oRT75 (75 cm2) flasks, cultured at 37° C. with 5% CO2, and passaged every 3-4 days. Growth medium conditions and cell line information are listed in Table 2, and the cells were counted using Countess (Invitrogen) to obtain the number of viable cells. Mutation and HRD status by cell type are described in Table 3.
The next day, compound-87 was diluted 1/2 to 1/4 to a concentration of 20 μM to 0.002 μM and treated at a set concentration range, and the co-administered drug was diluted 1/2 to 1/3 to a concentration of 100 μM to 0.00046 μM and treated at a 1:1 (v/v) ratio. Finally, the treatment ratio of compound-87 and the co-administered substance was between 1:20000 and 1:0.00015, and in clinical practice, compound-87: drug to be co-administered can be treated at a ratio of 1:10000 to 1:0.0001.
PANC-1 (wild-type BRCA1/BRCA2) pancreatic cancer cells were treated with compound-87 at concentrations of […], and E7016, a PARP inhibitor as a co-administered agent at concentration of 0.078, 0.156, 0.313, 0.625, 1.25, 2.5, 5, or 10 μM (FIG. 25). Cell culture was terminated on days 7 to 9, and cell viability and synergistic effect were evaluated for each combination of concentrations.
Cell viability was measured by a colorimetric assay using water-soluble tetrazolium salt (WST). […]
Results are normalized to DMSO-treated groups as 100% and expressed as the percent of viable cells upon compound addition. […]
The synergy of each compound was analyzed using Combenefit software (Cambridge Research UK, Cambridge Institute, University of Cambridge, United Kingdom), and synergy was evaluated by using Blliss (Ref: Di Veroli et al., 2016, Bioinformatics 32(18):2866-2868). […]

[2] = tested on: symmetric dimethyl arginine (SDMA); test: In vivo target inhibition: SDMA ELISA in tumor samples of the Mia PaCa-2 xenograft mouse model; settings: co-administration with 60 mg/kg gemcitabine
Protocol: Quantitative reduction levels of symmetric dimethyl arginine (SDMA) in tumor samples harvested from a subcutaneous xenograft mouse model of Mia PaCa-2 were measured by enzyme-linked immunosorbent assay (ELISA).
Reagents: Bradford solution (catalog no. 500-0006) was purchased from Bio-rad (USA). SDMA antibody (catalog no. 13222s) was purchased from Cell signaling Technology (USA). SmD3 antibody (catalog no. ap12451a) was purchased from Abgent (USA). Secondary antibody (catalog no. ab6721) and TMB substrate (catalog no. ab210902) were purchased from Abcam (UK).
Experimental procedure: Tumor tissue transplanted into mice was extracted, cells were lysed, and quantified with Bradford solution. […] of protein per sample was diluted with carbonate-bicarbonate buffer, dispensed into a 96-well plate, and reacted at room temperature for 2 hours. After washing three times with phosphate-buffered saline (PBST) containing 0.05% Tween-20, 200 μL of PBST containing 5% bovine serum albumin (BSA) (BSA-PBST) was added, and reacted at room temperature for 2 hours. After washing three times with PBST, 100 μL of SDMA antibody and SmD3 antibody were diluted in BSA-PBST, each was dispensed, and reacted overnight at 4° C. After washing three times with PBST on next day, 100 μL of secondary antibody diluted in BSA-PBST was added, and reacted at room temperature for 1 hour. After washing three times with PBST, 100 μL of TMB substrate was added and reacted at room temperature for 10-20 minutes, and 100 μL of 1N sulfuric acid solution was added to terminate the reaction. Then, the degree of SDMA inhibition by the compound was calculated by measuring the absorbance at 450 nm.

[3] = tested on: human small cell lung cancer cells NCI-H1048; test: Subcutaneous xenograft mouse model of NCI-H1048 small cell lung cancer cells, tumor growth inhibition; type: in vivo; settings: day 23; cisplatin alone, 4 mg/kg intraperitoneally once a week
Protocol: For in vivo efficacy study in a subcutaneous xenograft mouse model of human small cell lung cancer cells NCI-H1048, co-administration of compound-87 as a PRMT5 inhibitor according to an example of the present invention and cisplatin as an alkylating agent of a chemotherapeutic agent, was performed. To produce a small cell lung cancer xenograft model, 10 million of NCI-H1048 cells were injected subcutaneously into the right flank of female nude mice, and tumor growth was monitored.
To evaluate the anticancer effect, when the tumor volume reached approximately 162 mm^3 on average, the mice were divided into four groups. The all group included a solvent-treated group (Vehicle 1 (Compound-87)+Vehicle 2 (cisplatin) group), a Compound-87 monotherapy group (50 mg/kg), a cisplatin monotherapy group (4 mg/kg), and combination therapy group of Compound-87 and cisplatin. The Compound-87 treatment group was administered orally on a 3-day administration/4-day non-administration schedule, and cisplatin was administered intraperitoneally once a week for 22 days (Day 1-Day 23). All mice were euthanized on Day 22 (Day 23).

[4] = tested on: glioblastoma; settings: glioblastoma chemotherapy; cited from earlier work
[5] = tested on: CTG-1932, a human non-small cell lung cancer patient-derived cell line; test: Subcutaneous xenograft mouse model of patient-derived CTG-1932 non-small cell lung cancer, tumor growth inhibition; type: in vivo; settings: day 9; paclitaxel 20 mg/kg i.p. once a week, single treatment; significant
Protocol: For in vivo efficacy studies in a subcutaneous xenograft mouse model of CTG-1932, a human non-small cell lung cancer patient-derived cell line, combination therapy of compound-87 as a PRMT5 inhibitor according to one example of the present invention and with paclitaxel as a chemotherapy agent, was performed at Champions Oncology (USA).
To produce a non-small cell lung cancer xenograft model, CTG-1932 tumor stock was grown and harvested from primary mice and then transplanted subcutaneously into the left flank of immunocompromised female mice as a 5×5×5 mm^3 tumor fragment. When the tumor volume reached approximately 150-300 mm^3, the mice were separated into four groups of 10 each. All group consisted of a solvent-treated group (vehicle group), a compound-87 monotherapy group (50 mg/kg, oral administration, 3 days on/4 days off), a paclitaxel monotherapy group (20 mg/kg, intraperitoneal administration once a week), and combination treatment group of compound-87 (50 mg/kg, oral administration, 3 days on/4 days off) and paclitaxel (20 mg/kg, intraperitoneal administration once a week). tumor volume and body weight were measured twice a week.

In the case of `O=C1c2ccc(O[C@@H]3CCN(C4COC4)C3)cc2OCCN1C[C@H](O)CN1CCc2ccccc2C1` [Compound-271, 4-[(2R)-3-(3,4-dihydro-1H-isoquinolin-2-yl)-2-hydroxy-propyl]-8-[(3R)-1-(oxetan-3-yl)pyrrolidin-3-yl]oxy-2,3-dihydro-1,4-benzoxazepin-5-one], the “inhibition of cell viability, combination treatment compared to single agent” value [1] is reported as “enhanced inhibition effects of cell viability”.
With `CC(=O)N1CCC(Oc2ccc3c(c2)OCCN(C[C@H](O)CN2CCc4ccccc4C2)C3=O)CC1` [Compound-78, 8-[(1-acetyl-4-piperidyl)oxy]-4-[(2R)-3-(3,4-dihydro-1H-isoquinolin-2-yl)-2-hydroxy-propyl]-2,3-dihydro-1,4-benzoxazepin-5-one] the “SDMA amount in tumor samples compared to the vehicle group” value ([2]; 25 mg/kg) was 33.5%, the “SDMA amount in tumor samples compared to the vehicle group” value ([2]; 50 mg/kg) was 24.9% and the inhibition at 25 mg/kg ([2]; Mus musculus, MIA PaCa-2, 25 mg/kg) was 66.5%. The inhibition at 50 mg/kg ([2]; Mus musculus, MIA PaCa-2, 50 mg/kg) was 75.1%.
For `CN1CCC(Oc2ccc3c(c2)OC(C)(C)CN(C[C@H](O)CN2CCc4ccccc4C2)C3=O)CC1` [Compound-112, 4-[(2R)-3-(3,4-dihydro-1H-isoquinolin-2-yl)-2-hydroxy-propyl]-2,2-dimethyl-8-[(1-methyl-4-piperidyl)oxy]-3H-1,4-benzoxazepin-5-one], the “inhibition of cell viability, combination treatment compared to single agent” value [1] was “enhanced inhibition effects of cell viability”.
With `N.N.[Cl][Pt][Cl]` [cisplatin, azane; dichloroplatinum, reference compound] the “tumor growth inhibition rate” value [3] was 62.9%.
In the case of `Cn1nnc2c(C(N)=O)ncn2c1=O` [temozolomide, 3-methyl-4-oxoimidazo[5,1-d][1,2,3,5]tetrazine-8-carboxamide], the average survival [4] is listed as no more than 14.5 months.
In the case of `CC(=O)O[C@H]1C(=O)[C@@]2(C)[C@H]([C@H](OC(=O)c3ccccc3)[C@]3(O)C[C@H](OC(=O)[C@H](O)[C@@H](NC(=O)c4ccccc4)c4ccccc4)C(C)=C1C3(C)C)[C@]1(OC(C)=O)CO[C@@H]1C[C@@H]2O` [paclitaxel, [(1S,2S,3R,4S,7R,9S,10S,12R,15S)-4,12-diacetyloxy-15-[(2R,3S)-3-benzamido-2-hydroxy-3-phenylpropanoyl]oxy-1,9-dihydroxy-10,14,17,17-tetramethyl-11-oxo-6-oxatetracyclo[11.3.1.03,10.04,7]heptadeca-13-en-2-yl]benzoate, reference compound], the “tumor growth inhibition compared to the solvent-treated group” value [5] is reported as 75%.
